ChEMBL document CHEMBL5543142, “Discovery of YFJ-36: Design, Synthesis, and Antibacterial Activities of Catechol-Conjugated β-Lactams against Gram-Negative Bacteria” (J Med Chem, 2024)

Experiments:
Escherichia coli [1] = assay: Antibacterial activity against ESBL-producing multidrug-resistant Escherichia coli clinical isolate 14-1 assessed as inhibition of bacterial growth incubated for 18 to 20 hrs by two fold serial dilution assay; format: functional; conditions: time 18-20 hrs
Escherichia coli [2] = assay: Antibacterial activity against ESBL-producing multidrug-resistant Escherichia coli clinical isolate 14-2 assessed as inhibition of bacterial growth incubated for 18 to 20 hrs by two fold serial dilution assay; format: functional; conditions: time 18-20 hrs
Escherichia coli [3] = assay: Antibacterial activity against ESBL-producing multidrug-resistant Escherichia coli clinical isolate 14-4 assessed as inhibition of bacterial growth incubated for 18 to 20 hrs by two fold serial dilution assay; format: functional; conditions: time 18-20 hrs
Klebsiella pneumoniae [4] = assay: Antibacterial activity against KPC-2 producing multidrug-resistant Klebsiella pneumoniae clinical isolate 15-1 assessed as inhibition of bacterial growth incubated for 18 to 20 hrs by two fold serial dilution assay; format: functional; conditions: time 18-20 hrs
Klebsiella pneumoniae [5] = assay: Antibacterial activity against KPC-2 producing multidrug-resistant Klebsiella pneumoniae clinical isolate 15-2 assessed as inhibition of bacterial growth incubated for 18 to 20 hrs by two fold serial dilution assay; format: functional; conditions: time 18-20 hrs
Klebsiella pneumoniae [6] = assay: Antibacterial activity against KPC-2 producing multidrug-resistant Klebsiella pneumoniae clinical isolate 15-5 assessed as inhibition of bacterial growth incubated for 18 to 20 hrs by two fold serial dilution assay; format: functional; conditions: time 18-20 hrs
Escherichia coli [7] = assay: Antibacterial activity against Escherichia coli ATCC35218 assessed as inhibition of bacterial growth incubated for 18 to 20 hrs by two fold serial dilution assay; format: functional; conditions: time 18-20 hrs
Pseudomonas aeruginosa [8] = assay: Antibacterial activity against IMP-4 producing multidrug-resistant Pseudomonas aeruginosa clinical isolate 17-13 assessed as inhibition of bacterial growth incubated for 18 to 20 hrs by two fold serial dilution assay; format: functional; conditions: time 18-20 hrs
Pseudomonas aeruginosa [9] = assay: Antibacterial activity against IMP-4 producing multidrug-resistant Pseudomonas aeruginosa clinical isolate 17-1 assessed as inhibition of bacterial growth incubated for 18 to 20 hrs by two fold serial dilution assay; format: functional; conditions: time 18-20 hrs
Pseudomonas aeruginosa [10] = assay: Antibacterial activity against IMP-4 producing multidrug-resistant Pseudomonas aeruginosa clinical isolate 19-17 assessed as inhibition of bacterial growth incubated for 18 to 20 hrs by two fold serial dilution assay; format: functional; conditions: time 18-20 hrs
Acinetobacter baumannii [11] = assay: Antibacterial activity against OXA-23 producing multidrug-resistant Acinetobacter baumannii clinical isolate 17-2 assessed as inhibition of bacterial growth incubated for 18 to 20 hrs by two fold serial dilution assay; format: functional; conditions: time 18-20 hrs
Acinetobacter baumannii [12] = assay: Antibacterial activity against OXA-23 producing multidrug-resistant Acinetobacter baumannii clinical isolate 17-3 assessed as inhibition of bacterial growth incubated for 18 to 20 hrs by two fold serial dilution assay; format: functional; conditions: time 18-20 hrs
Pseudomonas aeruginosa [13] = assay: Antibacterial activity against IMP-4 producing multidrug-resistant Pseudomonas aeruginosa clinical isolate 19-5 assessed as inhibition of bacterial growth incubated for 18 to 20 hrs by two fold serial dilution assay; format: functional; conditions: time 18-20 hrs
Pseudomonas aeruginosa [14] = assay: Antibacterial activity against IMP-4 producing multidrug-resistant Pseudomonas aeruginosa clinical isolate 19-1 assessed as inhibition of bacterial growth incubated for 18 to 20 hrs by two fold serial dilution assay; format: functional; conditions: time 18-20 hrs
Acinetobacter baumannii [15] = assay: Antibacterial activity against OXA-23 producing multidrug-resistant Acinetobacter baumannii clinical isolate 17-5 assessed as inhibition of bacterial growth incubated for 18 to 20 hrs by two fold serial dilution assay; format: functional; conditions: time 18-20 hrs
Acinetobacter baumannii [16] = assay: Antibacterial activity against OXA-23 producing multidrug-resistant Acinetobacter baumannii clinical isolate 17-6 assessed as inhibition of bacterial growth incubated for 18 to 20 hrs by two fold serial dilution assay; format: functional; conditions: time 18-20 hrs
Acinetobacter baumannii [17] = assay: Antibacterial activity against OXA-23 producing multidrug-resistant Acinetobacter baumannii clinical isolate 17-7 assessed as inhibition of bacterial growth incubated for 18 to 20 hrs by two fold serial dilution assay; format: functional; conditions: time 18-20 hrs
Acinetobacter baumannii [18] = assay: Antibacterial activity against OXA-23 producing multidrug-resistant Acinetobacter baumannii clinical isolate 17-8 assessed as inhibition of bacterial growth incubated for 18 to 20 hrs by two fold serial dilution assay; format: functional; conditions: time 18-20 hrs
Klebsiella pneumoniae [19] = assay: Antibacterial activity against KPC-2 producing multidrug-resistant Klebsiella pneumoniae clinical isolate 15-3 assessed as inhibition of bacterial growth incubated for 18 to 20 hrs by two fold serial dilution assay; format: functional; conditions: time 18-20 hrs
Escherichia coli [20] = assay: Antibacterial activity against Escherichia coli NCTC-13353 assessed as inhibition of bacterial growth incubated for 18 to 20 hrs in presence of CAMHB medium by two fold serial dilution assay; format: functional; conditions: time 18-20 hrs
Escherichia coli [21] = assay: Antibacterial activity against Escherichia coli ATCC-35218 assessed as inhibition of bacterial growth incubated for 18 to 20 hrs in presence of CAMHB medium by two fold serial dilution assay; format: functional; conditions: time 18-20 hrs
Klebsiella pneumoniae [22] = assay: Antibacterial activity against Klebsiella pneumoniae ATCC BAA-1898 assessed as inhibition of bacterial growth incubated for 18 to 20 hrs in presence of CAMHB medium by two fold serial dilution assay; format: functional; conditions: time 18-20 hrs
Escherichia coli [23] = assay: Antibacterial activity against Escherichia coli NCTC-13353 assessed as inhibition of bacterial growth incubated for 18 to 20 hrs in presence of iron-depleted CAMHB medium by two fold serial dilution assay; format: functional; conditions: time 18-20 hrs
Escherichia coli [24] = assay: Antibacterial activity against Escherichia coli ATCC-35218 assessed as inhibition of bacterial growth incubated for 18 to 20 hrs in presence of iron-depleted CAMHB medium by two fold serial dilution assay; format: functional; conditions: time 18-20 hrs
Klebsiella pneumoniae [25] = assay: Antibacterial activity against Klebsiella pneumoniae ATCC BAA-1898 assessed as inhibition of bacterial growth incubated for 18 to 20 hrs in presence of iron-depleted CAMHB medium by two fold serial dilution assay; format: functional; conditions: time 18-20 hrs
hERG (KCNH2) = hERG (KCNH2) (Homo sapiens, UniProt Q12809); assay: Inhibition of hERG at 40 uM by whole cell Qpatch assay relative to control; format: toxicity
Sequence of hERG (KCNH2) (Q12809 whole entry): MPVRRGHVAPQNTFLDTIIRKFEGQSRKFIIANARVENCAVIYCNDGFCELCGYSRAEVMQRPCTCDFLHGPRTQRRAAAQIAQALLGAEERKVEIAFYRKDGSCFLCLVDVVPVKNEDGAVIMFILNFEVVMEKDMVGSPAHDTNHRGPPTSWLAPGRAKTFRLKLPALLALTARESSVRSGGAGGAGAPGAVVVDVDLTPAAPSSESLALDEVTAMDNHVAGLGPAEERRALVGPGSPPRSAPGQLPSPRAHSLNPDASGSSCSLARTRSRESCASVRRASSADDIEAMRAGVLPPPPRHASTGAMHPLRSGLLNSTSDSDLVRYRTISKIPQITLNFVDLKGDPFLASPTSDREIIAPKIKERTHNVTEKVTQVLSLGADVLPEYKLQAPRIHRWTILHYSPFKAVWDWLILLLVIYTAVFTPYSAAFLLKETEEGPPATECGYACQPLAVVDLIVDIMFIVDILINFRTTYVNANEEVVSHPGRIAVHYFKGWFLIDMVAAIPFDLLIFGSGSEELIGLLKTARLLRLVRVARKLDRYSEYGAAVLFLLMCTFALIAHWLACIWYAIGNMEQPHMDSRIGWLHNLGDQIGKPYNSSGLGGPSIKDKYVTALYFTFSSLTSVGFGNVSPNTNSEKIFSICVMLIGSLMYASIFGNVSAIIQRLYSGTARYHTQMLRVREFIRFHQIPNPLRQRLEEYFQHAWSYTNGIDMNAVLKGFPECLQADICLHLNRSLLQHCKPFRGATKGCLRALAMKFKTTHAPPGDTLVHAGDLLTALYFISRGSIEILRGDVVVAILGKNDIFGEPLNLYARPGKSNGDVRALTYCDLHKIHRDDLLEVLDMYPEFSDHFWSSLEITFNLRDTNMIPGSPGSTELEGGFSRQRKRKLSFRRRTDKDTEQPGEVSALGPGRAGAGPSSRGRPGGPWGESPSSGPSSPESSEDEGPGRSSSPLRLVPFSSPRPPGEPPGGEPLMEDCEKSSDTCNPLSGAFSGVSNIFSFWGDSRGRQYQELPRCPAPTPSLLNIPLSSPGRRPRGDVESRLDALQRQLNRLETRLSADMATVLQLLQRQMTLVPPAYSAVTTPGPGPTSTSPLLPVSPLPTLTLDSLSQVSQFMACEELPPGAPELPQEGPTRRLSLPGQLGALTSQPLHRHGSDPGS

[26] = target: Voltage-gated inwardly rectifying potassium channel KCNH2 (Homo sapiens, UniProt Q12809); assay: Inhibition of hERG by whole cell Qpatch assay; format: toxicity
Sequence of Voltage-gated inwardly rectifying potassium channel KCNH2 (Q12809 whole entry): as above

Acinetobacter baumannii [27] = assay: Antibacterial activity against OXA-23 producing multidrug-resistant Acinetobacter baumannii clinical isolate 15-1 assessed as inhibition of bacterial growth incubated for 18 to 20 hrs by two fold serial dilution assay; format: functional; conditions: time 18-20 hrs
Acinetobacter baumannii [28] = assay: Antibacterial activity against OXA-23 producing multidrug-resistant Acinetobacter baumannii clinical isolate 15-2 assessed as inhibition of bacterial growth incubated for 18 to 20 hrs by two fold serial dilution assay; format: functional; conditions: time 18-20 hrs
Acinetobacter baumannii [29] = assay: Antibacterial activity against OXA-23 producing multidrug-resistant Acinetobacter baumannii clinical isolate 15-3 assessed as inhibition of bacterial growth incubated for 18 to 20 hrs by two fold serial dilution assay; format: functional; conditions: time 18-20 hrs
Acinetobacter baumannii [30] = assay: Antibacterial activity against OXA-23 producing multidrug-resistant Acinetobacter baumannii clinical isolate 15-4 assessed as inhibition of bacterial growth incubated for 18 to 20 hrs by two fold serial dilution assay; format: functional; conditions: time 18-20 hrs
Acinetobacter baumannii [31] = assay: Antibacterial activity against OXA-23 producing multidrug-resistant Acinetobacter baumannii clinical isolate 15-5 assessed as inhibition of bacterial growth incubated for 18 to 20 hrs by two fold serial dilution assay; format: functional; conditions: time 18-20 hrs
[32] = AUC (0 to infinity) in ICR mouse at 20 mg/kg,iv administration measured upto 6 hrs by LC-MS/MS analysis; format: ADME, organism-based; conditions: in vivo
[33] = Clearance in ICR mouse at 20 mg/kg,iv administration measured upto 6 hrs by LC-MS/MS analysis; format: ADME, organism-based; conditions: in vivo
[34] = Half life in ICR mouse at 20 mg/kg,iv administration measured upto 6 hrs by LC-MS/MS analysis; format: ADME, organism-based; conditions: in vivo
[35] = MRT in ICR mouse at 20 mg/kg,iv administration measured upto 6 hrs by LC-MS/MS analysis; format: ADME, organism-based; conditions: in vivo
[36] = Volume of distribution at steady state in ICR mouse at 20 mg/kg,iv administration measured upto 6 hrs by LC-MS/MS analysis; format: ADME, organism-based; conditions: in vivo, read-out: Vdss

Compound | MIC (Escherichia coli [1]) [µg/mL] | MIC (Escherichia coli [2]) [µg/mL] | MIC (Escherichia coli [3]) [µg/mL] | MIC (Klebsiella pneumoniae [4]) [µg/mL] | MIC (Klebsiella pneumoniae [5]) [µg/mL] | MIC (Klebsiella pneumoniae [6]) [µg/mL] | MIC (Escherichia coli [7]) [µg/mL] | MIC (Pseudomonas aeruginosa [8]) [µg/mL] | MIC (Pseudomonas aeruginosa [9]) [µg/mL] | MIC (Pseudomonas aeruginosa [10]) [µg/mL] | MIC (Klebsiella pneumoniae [19]) [µg/mL] | MIC (Escherichia coli [20]) [µg/mL] | MIC (Escherichia coli [21]) [µg/mL] | MIC (Klebsiella pneumoniae [22]) [µg/mL] | MIC (Escherichia coli [23]) [µg/mL] | MIC (Escherichia coli [24]) [µg/mL] | MIC (Klebsiella pneumoniae [25]) [µg/mL] | inhibition at 40 µM (hERG (KCNH2)) [%] | IC50 [26] [µM] | further results
Nc1nc(/C(=N/O[C@H](C(=O)O)C2CCC(F)(F)CC2)C(=O)N[C@@H]2C(=O)N3C(C(=O)O)=C(CSCCNC(=O)c4ccc(O)c(O)c4Cl)CS[C@H]23)cs1.O=C(O)C(F)(F)F | 0.25 | 1 | 0.125 | 0.25 | 1 | 1 | 0.125 | 0.125 | 64 | 0.25 | 0.25 | 1 | 2 | 8 | 1 | 0.5 | 2 | 23.8 | > 40 | MIC (Acinetobacter baumannii [11]): 0.5 µg/mL; MIC (Acinetobacter baumannii [12]): 0.5 µg/mL; MIC (Pseudomonas aeruginosa [13]): 2 µg/mL; MIC (Pseudomonas aeruginosa [14]): 8 µg/mL; MIC (Acinetobacter baumannii [15]): 0.25 µg/mL; MIC (Acinetobacter baumannii [16]): 0.5 µg/mL; MIC (Acinetobacter baumannii [17]): 0.5 µg/mL; MIC (Acinetobacter baumannii [18]): 1 µg/mL
Nc1nc(/C(=N/OC(C(=O)O)C2CCC(F)(F)CC2)C(=O)N[C@@H]2C(=O)N3C(C(=O)O)=C(CSCCNC(=O)c4ccc(O)c(O)c4Cl)CS[C@H]23)cs1.O=C(O)C(F)(F)F (stereo partly specified) | 0.5 | 0.5 | 0.125 | 2 | 0.5 | 0.25 | ≤ 0.03 | 0.25 | 4 | 1 | 1 | 0.5 | 2 | 8 | 0.5 | 0.25 | 2 | 16.8 | > 40 | MIC (Acinetobacter baumannii [27]): 4 µg/mL; MIC (Acinetobacter baumannii [28]): 2 µg/mL; MIC (Acinetobacter baumannii [29]): 4 µg/mL; MIC (Acinetobacter baumannii [30]): 4 µg/mL; MIC (Acinetobacter baumannii [31]): 2 µg/mL; AUC(0-inf) [32]: 10400 ng·h/mL; clearance [33]: 33.9 mL/min/kg; half-life [34]: 3.14 h; MRT [35]: 0.76 h; Vd [36]: 1.59 L/kg
